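Interpolation was linear, between the two tested concentrations surrounding the appropriate level; five concentrations were tested over 48 hours in 96-well plates. Here, GI50 denotes the concentration required for 50% inhibition of growth. TGI: total growth inhibition.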
Key:
Assay in all cases: DTP human tumour cell line panel, 48 h
OVCAR-3 ovarian = test system: OVCAR-3 ovarian
UO-31 renal = test system: UO-31 renal
SF-295 CNS = test system: SF-295 CNS
U251 CNS = test system: U251 CNS
A549 NSCLC = test system: A549 NSCLC
CAKI-1 renal = test system: CAKI-1 renal
SK-MEL-2 melanoma = test system: SK-MEL-2 melanoma
A498 renal = test system: A498 renal
RPMI-8226 leukemia = test system: RPMI-8226 leukemia

Row | Structure (SMILES) | TGI (OVCAR-3 ovarian) [µM] | TGI (UO-31 renal) [µM] | TGI (SF-295 CNS) [µM] | TGI (U251 CNS) [µM] | TGI (A549 NSCLC) [µM] | TGI (CAKI-1 renal) [µM] | GI50 (OVCAR-3 ovarian) [µM] | GI50 (UO-31 renal) [µM] | GI50 (SK-MEL-2 melanoma) [µM] | TGI (SK-MEL-2 melanoma) [µM] | GI50 (A498 renal) [µM] | TGI (A498 renal) [µM] | GI50 (SF-295 CNS) [µM] | GI50 (U251 CNS) [µM] | GI50 (A549 NSCLC) [µM] | GI50 (CAKI-1 renal) [µM] | GI50 (RPMI-8226 leukemia) [µM] | TGI (RPMI-8226 leukemia) [µM]
1 | O=C1OCC2=Nc3cccc4cccc(c34)N12 | > 100 | > 100 | > 100 | > 100 | > 100 | > 100 | – | – | – | – | – | – | – | – | – | – | – | –
2 | CC1=CC[C@@H]2C(C)(C)[C@@H](O)CC[C@@]2(C)[C@@H]1COc1ccc2ccc(=O)oc2c1 | 16 | 13.1 | 23.1 | 27.9 | 22.8 | 20.9 | 4.34 | 2.99 | 5.49 | 21.9 | 0.905 | 19.9 | 10.8 | 8.82 | 5.68 | 4.11 | – | –
3 | Cc1cc(O)cc(C)c1/C=C/c1cncc(C(=O)N(C)C)c1 | > 25 | > 25 | > 25 | > 25 | > 25 | > 25 | > 25 | > 25 | > 25 | > 25 | > 25 | > 25 | > 14.8 | > 25 | > 25 | > 25 | > 25 | > 25
4 | COc1ccc(/C=[N+](\[O-])[C@H](COCc2ccccc2)c2ccccc2)cc1 | > 100 | > 100 | > 100 | > 100 | – | – | – | – | – | > 100 | – | > 100 | – | – | – | – | – | > 100
5 | CN(C)CCNc1cccc2sc3ccc(O)cc3c(=O)c12 | 11.5 | 3.58 | 22.3 | – | 5.54 | 13.3 | 3.28 | 1.16 | – | – | 10.8 | 24.1 | 6.53 | – | 0.643 | 2.22 | 1.84 | 4.98
6 | NC(N)=NNC(=O)C(=O)O | > 100 | > 100 | > 100 | > 100 | > 100 | > 100 | – | – | – | > 100 | – | > 100 | – | – | – | – | – | > 100
7 | NC(N)=N/N=C/c1c(-c2cc(Cl)sc2Cl)nc2n1CCS2 | 17.3 | > 50 | 17.1 | 14.4 | 22 | 23.2 | 8.81 | 17.3 | 22.6 | > 50 | 8.9 | 16.6 | 8.75 | 7.61 | 9.57 | 12.8 | 9.34 | 19.4
8 | O=C1Cc2c(-c3ccccc3)cc(-c3cccc(Cl)c3)nc2-c2ccccc2N1 | 6.84 | 11.2 | 28.6 | 3.12 | 9.25 | 5.06 | – | – | – | 24.4 | – | 15.7 | – | – | – | – | – | > 93
9 | CC(SC1=CC(=O)c2c(O)ccc(O)c2C1=O)C(=O)O (stereo unspecified) | 53.1 | > 75.4 | > 100 | > 60.1 | > 100 | 72.2 | – | – | – | > 100 | – | > 100 | – | – | – | – | – | > 96.2
10 | CCN(CC)C(=S)SSC1CCCCC1 | – | 25.7 | 44.6 | 29.1 | 82.6 | 25.2 | – | 12.1 | 26.7 | 61.2 | 30.8 | > 100 | 17.6 | 14.2 | 30.9 | 11.9 | 9.99 | 31.4
11 | C=C1C(=O)O[C@H]2[C@H]1CC/C(COC(=O)c1ccc(C(=O)O)s1)=C\CC[C@@]1(C)O[C@@H]21 | 2.98 | 3.04 | 18.7 | 8.37 | 18.4 | 3.11 | 1.43 | 1.4 | 2.29 | 5.22 | 7.5 | 20.3 | 5.65 | 2.61 | 5.35 | 1.71 | 1.97 | 5.98
12 | Cc1ccc(S(=O)(=O)NCCN2c3nc4ccccc4cc3Sc3cc4ccccc4nc32)cc1 | > 100 | > 100 | 18.5 | > 89.9 | > 100 | > 71.7 | > 26.8 | > 100 | > 37.4 | > 80.2 | 24.4 | > 84.9 | 4.04 | 4.93 | > 100 | 13.8 | – | –
13 | CN(C)CN1C(=O)S/C(=C2\C(=O)N(CN(C)C)c3ccccc32)C1=O | > 100 | 91.8 | > 100 | > 100 | > 100 | 97.9 | – | – | – | > 100 | – | > 100 | – | – | – | – | – | 54.8
14 | C=C1C(O)C2C(=C(CC(C)C)C13CC3)C(=O)C(C)(C)C2OC (stereo unspecified) | > 100 | > 100 | > 100 | > 100 | > 100 | – | > 100 | > 100 | > 100 | > 100 | > 100 | > 100 | > 100 | > 100 | > 100 | – | 65.3 | > 100
15 | N#C/C(=C(\O)C(=O)O)c1ccc(-c2cccc3ccccc23)cc1 | > 100 | > 100 | > 100 | > 100 | > 100 | > 100 | – | – | – | > 100 | – | > 100 | – | – | – | – | – | > 100
16 | c1ccc(COc2ccc3[nH]c4c(ncc5[nH]c6ccccc6c54)c3c2)cc1 | 30.3 | 32.8 | 28.2 | 24.4 | 34.9 | 47.5 | – | – | – | 30.8 | – | 41.6 | – | – | – | – | – | 8.01
17 | [Cl][Sn]([c]1ccccc1)[c]1ccccc1 | 24.1 | 30.9 | 35.2 | 23.2 | 36.2 | 8.98 | 11.4 | 17.2 | 2.65 | 11.9 | – | – | 19.2 | 10.3 | 17.5 | 2.54 | 2.09 | 6.14
18 | CCOC(=O)/C=C/c1ccc(C(=O)OCC)[nH]1 | 7.64 | > 100 | 41.2 | > 100 | > 100 | > 100 | 2.38 | 4 | – | – | 1.61 | 12.1 | 3.5 | 3.92 | 5.69 | 6.36 | 5.32 | > 100

From PubChem BioAssay (NCI)
